Target: T1, human OX2R (Homo sapiens, UniProt O43614)
T1 construct: expressed in transfected cells; host or cells: CHO (Chinese hamster ovary) cells, grown under G418 selection
T1 sequence (O43614 1-444): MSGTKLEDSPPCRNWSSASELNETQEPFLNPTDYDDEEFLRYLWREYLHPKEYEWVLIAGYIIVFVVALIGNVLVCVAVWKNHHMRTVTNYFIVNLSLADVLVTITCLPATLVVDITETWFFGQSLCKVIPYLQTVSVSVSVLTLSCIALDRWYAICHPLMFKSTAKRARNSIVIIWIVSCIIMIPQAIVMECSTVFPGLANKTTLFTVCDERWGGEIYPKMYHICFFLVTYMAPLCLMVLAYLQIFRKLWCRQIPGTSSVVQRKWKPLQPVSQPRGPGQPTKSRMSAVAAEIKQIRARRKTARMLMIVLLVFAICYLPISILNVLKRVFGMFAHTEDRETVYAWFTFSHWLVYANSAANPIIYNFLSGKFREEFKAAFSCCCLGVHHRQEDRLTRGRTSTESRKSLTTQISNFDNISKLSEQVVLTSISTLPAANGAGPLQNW
Assay: IP-One (IPOne) orexin receptor agonist assay in CHO cells expressing human OX2R
Type: cell-based
Details: for EC50: CHO cells expressing human OX2R, IP-One IP-1 detection, 2 hours incubation, four parameter logistic fit, read-out: OX2R Potency, EC50; for % of reference agonist maximal effect: human OX2R, percentage of sample raw value/mean max effect (reference compound at 1 uM with 100% activity)
In short: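 CHO cells stably expressing human OX2R were stimulated with compound (10-point ½-log dilutions) for 2 h at 37 °C. IP-1 accumulation was read by HTRF (IP-One, 665/620 nm). EC50 from a four-parameter fit; % effect relative to 1 μM reference agonist control.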

Row | EC50 [µM] | % of reference agonist maximal effect [%] | SMILES
1 | 0.241 | 95.0 | CCNC(=O)N1C(C)CCC(c2ccn[nH]2)C1COC1CCC(C(C)C)CC1 (stereo not shown) [Example 38, N-ethyl-2-(((4-isopropylcyclohexyl)oxy)methyl)-6-methyl-3-(H-pyrazol-5-yl)piperidine-1-carboxamide]
2 | > 10 | 9.5 | CCc1c[nH]nc1[C@@H]1CCCN(C(=O)OC)[C@@H]1CO[C@H]1CC[C@@H](c2ccccc2)CC1 [Example 44, (2S,3R)-3-(4-ethyl-1H-pyrazol-3-yl)-2-((((CIS)-4-phenylcyclohexyl)oxy)methyl)piperidine-1-carboxylate]
3 | 0.104 | 100.5 | COC(=O)N1CCC[C@H](c2n[nH]cc2CO)[C@@H]1CO[C@H]1CC[C@@H](c2ccccc2)CC1 [Example 53]
4 | 3.07 | 66.9 | COC(=O)N1CCC[C@@H](c2n[nH]cc2C(F)F)[C@H]1CO[C@H]1CC[C@@H](c2ccccc2)CC1 [Example 56, Methyl (2S,3R)-3-(4-(difluoromethyl)-pH-pyrazol-3-yl)-2-((((CIS)-4-phenylcyclohexyl)oxy)methyl) piperidine-1-carboxylate]
5 | 0.278 | 99.2 | C[C@H]1C[C@H]1C(=O)N1CCC[C@H](c2cc[nH]n2)[C@@H]1COC1CCC(c2ccccc2)CC1 (stereo partly drawn) [Example 69, ((CIS)-2-methylcyclopropyl)((2R,3S)-2-((((1s,4S)-4-phenylcyclohexyl)oxy)methyl)-3-(1H-pyrazol-3-yl)piperidin-1-yl)methanone]
6 | 3.11 | 99.5 | COCC[C@H](N)C(=O)N1CCC[C@H](c2cc[nH]n2)[C@@H]1COC1CCC(C(C)C)CC1 (stereo partly drawn) [Example 72, (S)-2-amino-1-((CIS)-2-((((CIS)-4-isopropylcyclohexyl)oxy)methyl)-3-(1H-pyrazol-3-yl)piperidin-1-yl)-4-methoxybutan-1-one]
7 | 9.77 | 55.8 | CCC[C@](C)(F)C(=O)N1CCC[C@H](c2cc[nH]n2)[C@@H]1COC1CCC(C(C)C)CC1 (stereo partly drawn) [Example 89, (S)-2-fluoro-1-((CIS)-2-((((CIS)-4-isopropylcyclohexyl)oxy)methyl)-3-(1H-pyrazol-3-yl)piperidin-1-yl)-2-methylpentan-1-one]
8 | 6.64 | 93.5 | CN1C[C@H](COC(=O)N2CCC[C@H](c3cc[nH]n3)[C@@H]2COC2CCC(c3ccccc3)CC2)OCC1=O (stereo partly drawn) [Example 94, ((R)-4-methyl-5-oxomorpholin-2-yl)methyl (CIS)-2-((((CIS)-4-phenylcyclohexyl)oxy)methyl)-3-(1H-pyrazol-3-yl)piperidine-1-carboxylate]
9 | 5.09 | 52.4 | CC[C@H](C)COC(=O)N1CCC[C@H](c2cc[nH]n2)[C@@H]1CO[C@H]1CC[C@@H](c2ccccc2)CC1 [Example 107, (S)-2-methylbutyl (CIS)-2-((((CIS)-4-phenylcyclohexyl)oxy)methyl)-3-(1H-pyrazol-3-yl)piperidine-1-carboxylate]
10 | 5.27 | 60.7 | CC[C@@H](C)OC(=O)N1CCC[C@H](c2cc[nH]n2)[C@@H]1CO[C@H]1CC[C@@H](c2ccccc2)CC1 [Example 108, (R)-sec-butyl (CIS)-2-((((CIS)-4-phenylcyclohexyl)oxy)methyl)-3-(1H-pyrazol-3-yl)piperidine-1-carboxylate]
11 | 7.47 | 51.4 | C#C[C@H](C)OC(=O)N1CCC[C@H](c2cc[nH]n2)[C@@H]1CO[C@H]1CC[C@@H](c2ccccc2)CC1 [Example 115, (S)-but-3-yn-2-yl (CIS)-2-((((CIS)-4-phenylcyclohexyl)oxy)methyl)-3-(1H-pyrazol-3-yl)piperidine-1-carboxylate]
12 | 7.76 | 56.1 | CC[C@H](C)OC(=O)N1CCC[C@H](c2cc[nH]n2)[C@@H]1CO[C@H]1CC[C@@H](c2ccccc2)CC1 [Example 116, (S)-sec-butyl (CIS)-2-((((CIS)-4-phenylcyclohexyl)oxy)methyl)-3-(1H-pyrazol-3-yl)piperidine-1-carboxylate]
13 | 9.69 | 50.6 | CO[C@@H](C)COC(=O)N1CCC[C@H](c2cc[nH]n2)[C@@H]1CO[C@H]1CC[C@@H](c2ccccc2)CC1 [Example 119, (S)-2-methoxypropyl (CIS)-2-((((CIS)-4-phenylcyclohexyl)oxy)methyl)-3-(1H-pyrazol-3-yl)piperidine-1-carboxylate]
14 | 5.94 | 69.6 | CC[C@@H](C)NC(=O)N1CCC[C@H](c2cc[nH]n2)[C@@H]1CO[C@H]1CC[C@@H](c2ccccc2)CC1 [Example 128, (CIS)-N-((R)-sec-butyl)-2-((((CIS)-4-phenylcyclohexyl)oxy)methyl)-3-(1H-pyrazol-3-yl)piperidine-1-carboxamide]

From patent publication US12552767B2, “3-heteroaryl pyrrolidine and piperidine orexin receptor agonists” (Merck Sharp & Dohme LLC, priority 2020, dated 2026)
